# Test results: patent US20110065694A1 (priority 2009, published 2011)
# Molecular target: human histamine H3 receptor (Homo sapiens, UniProt Q9Y5N1)
# Experiment: H3 GTPγS assay (SPA method), histamine H3 in vitro assay
# Format: biochemical
# Conditions: not given
# Procedure: Briefly, cells expressing the human histamine H3 receptor were homogenized in 15 mM Tris-HCl pH 7.5, 2 mM MgCl2, 0.3 mM EDTA, and 1 mM EGTA. […] Membranes were frozen in liquid nitrogen until use. On the day of the assay, membranes were thawed and diluted in assay buffer (20 mM HEPES pH 7.4, 100 mM NaCl, 10 μg/ml saponin, 1 mM MgCl2) to give 500 μg/ml and mixed (v/v) with GDP in assay buffer for a final GDP concentration of 10 μM and incubated on ice for at least […]. PVT-WGA beads (Amersham, RPNQ001) were diluted in assay buffer at 50 mg/mL and mixed with GTPγ[^35S] (Amersham, SJ1308) diluted in assay buffer to give ˜25,000 dpm/10 μL and mixed vol/vol just before the start of the reaction.
# For antagonists testing, 10 μL of a reference agonist ([…]) instead of 10 μL buffer was added at a concentration corresponding to the EC80 (30 nM).
# The compounds provided herein were tested in the histamine H3 in vitro assay. In one embodiment, the respective HCl salts of the compounds provided herein were prepared using standard chemical procedures and tested in the histamine H3 in vitro assay.
# human histamine H3 receptor, sequence (Q9Y5N1 whole entry): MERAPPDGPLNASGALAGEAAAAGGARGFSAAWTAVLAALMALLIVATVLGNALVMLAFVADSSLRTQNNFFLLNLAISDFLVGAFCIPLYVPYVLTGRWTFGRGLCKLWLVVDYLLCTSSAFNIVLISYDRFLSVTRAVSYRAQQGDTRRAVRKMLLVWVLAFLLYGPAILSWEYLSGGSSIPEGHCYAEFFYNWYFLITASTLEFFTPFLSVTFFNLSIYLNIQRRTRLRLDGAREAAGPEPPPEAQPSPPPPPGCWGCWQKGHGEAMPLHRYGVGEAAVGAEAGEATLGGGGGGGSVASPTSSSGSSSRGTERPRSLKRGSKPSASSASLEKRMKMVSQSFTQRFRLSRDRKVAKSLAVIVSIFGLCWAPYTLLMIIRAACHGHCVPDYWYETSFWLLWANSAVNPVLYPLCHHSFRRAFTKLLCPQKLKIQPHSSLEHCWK
row,SMILES,IC50
1,"Brc1ccc2c(c1)nc1n2CCN2CCCC2C1 (stereo not drawn) [Compound 72, 10-bromo-2,3,5,6,13,13a-hexahydro-1H-benzo[4,5]imidazo[1,2-d]pyrrolo[2,1-g][1,4]diazepine]",< 100 nM
2,"N#Cc1ccc(-c2ccc3c(c2)nc2n3CCN3CCC[C@H]3C2)cc1 [Compound 2, (S)-4-(2,3,5,6,13,13a-hexahydro-1H-benzo[4,5]imidazo[1,2-d]pyrrolo[2,1-g][1,4]diazepin-10-yl)benzonitrile]",< 100 nM

# Same assay, conditions: membranes of cells expressing human H3; GTPγ[35S] SPA; antagonist testing with reference agonist at EC80 (30 nM); in one embodiment HCl salts tested; read-out: Potency (functional potency as indicated by IC50)
row,IC50,SMILES
1,< 100 nM,"c1cc2c(cc1CN1CCOCC1)nc1n2CCCN2CCCCC2C1 (stereo not drawn) [Compound 68, 4-((2,3,4,6,7,8,15,15a-octahydro-1H-benzo[4,5]imidazo[1,2-a]pyrido[2,1-d][1,5]diazocin-12-yl)methyl)morpholine]"
2,< 100 nM,"c1cn2cc(-c3ccc4c(c3)nc3n4CCCN4CCCCC4C3)ccc2n1 (single isomer, unassigned) [Compound 71]"
3,< 100 nM,"Brc1ccc2c(c1)nc1n2CCCN2CCCC2C1 (stereo not drawn) [Compound 79, 11-bromo-1,2,3,5,6,7,14,14a-octahydrobenzo[4,5]imidazo[1,2-a]pyrrolo[2,1-d][1,5]diazocine]"
4,< 10 nM,"N#Cc1ccc(-c2ccc3c(c2)nc2n3CCN3CCCCC3C2)cc1 (single isomer, unassigned) [Compound 47]"
5,< 10 nM,"c1cn2cc(-c3ccc4c(c3)nc3n4CCCN4CCCCC4C3)ccc2n1 (single isomer, unassigned) [Compound 70]"
6,< 10 nM,"c1cn2cc(-c3ccc4c(c3)nc3n4CCCN4CCCC4C3)ccc2n1 (single isomer, unassigned) [Compound 82]"
7,< 10 nM,"N#Cc1ccc(-c2ccc3c(c2)nc2n3CCCN3CCCC3C2)cc1 (stereo not drawn) [Compound 80, 4-(1,2,3,5,6,7,14,14a-octahydrobenzo[4,5]imidazo[1,2-a]pyrrolo[2,1-d][1,5]diazocin-11-yl)benzonitrile]"
8,< 10 nM,"c1ccc2c(c1)CCN(Cc1ccc3c(c1)nc1n3CCN3CCCC3C1)C2 (stereo not drawn) [Compound 76, 10-((3,4-dihydroisoquinolin-2(1H)-yl)methyl)-2,3,5,6,13,13a-hexahydro-1H-benzo[4,5]imidazo[1,2-d]pyrrolo[2,1-g][1,4]diazepine]"
9,< 100 nM,"CC1Cc2nc3cc(Br)ccc3n2CCN1C1CCC1 (stereo not drawn) [Compound 40, 8-bromo-3-cyclobutyl-4-methyl-2,3,4,5-tetrahydro-1H-benzo[4,5]imidazo[1,2-d][1,4]diazepine]"
10,< 100 nM,"c1cn2cc(-c3ccc4c(c3)nc3n4CCN4CCCC[C@H]4C3)ccc2n1 [Compound 49, (S)-11-(imidazo[1,2-a]pyridin-6-yl)-1,2,3,4,6,7,14,14a-octahydrobenzo[4,5]imidazo[1,2-d]pyrido[2,1-g][1,4]diazepine]"
11,< 100 nM,"c1ccc2c(c1)CCN(Cc1ccc3c(c1)nc1n3CCN3CCCC[C@H]3C1)C2 [Compound 65, (S)-11-((3,4-dihydroisoquinolin-2(1H)-yl)methyl)-1,2,3,4,6,7,14,14a-octahydrobenzo[4,5]imidazo[1,2-d]pyrido[2,1-g][1,4]diazepine]"
12,< 100 nM,"CC1Cn2c(nc3cc(-c4ccc(C#N)cc4)ccc32)CCN1C1CCC1 (stereo not drawn) [Compound 43, 4-(3-cyclobutyl-2-methyl-2,3,4,5-tetrahydro-1H-benzo[4,5]imidazo[1,2-d][1,4]diazepin-8-yl)benzonitrile]"
13,< 10 nM,"c1cn2cc(-c3ccc4c(c3)nc3n4CCCN4CCCCC4C3)ccc2n1 (stereo not drawn) [Compound 67, 12-(imidazo[1,2-a]pyridin-6-yl)-2,3,4,6,7,8,15,15a-octahydro-1H-benzo[4,5]imidazo[1,2-a]pyrido[2,1-d][1,5]diazocine]"
14,< 10 nM,"c1cn2cc(-c3ccc4c(c3)nc3n4CCN4CCCC4C3)ccc2n1 (stereo not drawn) [Compound 74, 10-(imidazo[1,2-a]pyridin-6-yl)-2,3,5,6,13,13a-hexahydro-1H-benzo[4,5]imidazo[1,2-d]pyrrolo[2,1-g][1,4]diazepine]"
15,< 10 nM,"c1cc2c(cc1CN1CCOCC1)nc1n2CCN(C2CCC2)C1 [Compound 56, 4-((2-cyclobutyl-1,2,3,4-tetrahydrobenzo-[4,5]imidazo[1,2-a]pyrazin-8-yl)methyl)morpholine]"

# More lines, now with the values behind:
row,SMILES,IC50
1,"c1coc(-c2ccc3c(c2)nc2n3CCN3CCC[C@H]3C2)c1 [Compound 4, (5)-10-(furan-2-yl)-2,3,5,6,13,13a-hexahydro-1H-benzo[4,5]imidazo[1,2-d]pyrrolo[2,1-g][1,4]diazepine]",< 1000 nM
2,"N#Cc1ccc(-c2ccc3c(c2)nc2n3CCN3CCCCC3C2)cc1 (stereo not drawn) [Compound 8, 4-(1,2,3,4,6,7,14,14a-octahydrobenzo[4,5]imidazo-[1,2-d]pyrido[2,1-g][1,4]diazepin-11-yl)benzonitrile]",< 10 nM
3,"N#Cc1ccc(-c2ccc3c(c2)nc2n3CCN3CCC[C@H]3C2)cn1 [Compound 5, (S)-5-(2,3,5,6,13,13a-hexahydro-1H-benzo[4,5]imidazo[1,2-d]pyrrolo[2,1-g][1,4]diazepin-10-yl)picolinonitrile]",< 100 nM
4,"Clc1ccc2c(c1)nc1n2CC2CC1CN2C1CCC1 (stereo not drawn) [Compound 35, 8-chloro-3-cyclobutyl-2,3,4,5-tetrahydro-1H-2,5-methanobenzo[4,5]imidazo[1,2-d][1,4]diazepine]",< 1000 nM
5,"Clc1ccc2c(c1)nc1n2C2CCC1CN(C1CCC1)C2 (stereo not drawn) [Compound 25, 8-chloro-3-cyclobutyl-2,3,4,5-tetrahydro-1H-1,5-ethanobenzo[4,5]imidazo[1,2-d][1,4]diazepine]",< 1000 nM
6,"c1cnc(-c2ccc3c(c2)nc2n3CCN3CCCCC3C2)cn1 (stereo not drawn) [Compound 9, 11-(pyrazin-2-yl)-1,2,3,4,6,7,14,14a-octahydrobenzo[4,5]imidazo[1,2-d]pyrido[2,1-g][1,4]diazepine]",< 10 nM
7,"CC(=O)Nc1ccc(-c2ccc3c(c2)nc2n3CC3CCC(C2)N3C2CCC2)cc1 (stereo not drawn) [Compound 21, N-(4-(13-cyclobutyl-6,7,8,9,10,11-hexahydro-7,10-epiminobenzo[4,5]imidazo[1,2-a]azocin-3-yl)phenyl)acetamide]",< 10 nM
8,"c1ccc2c(c1)ncn2-c1ccc2c(c1)nc1n2CCN2CCCCC2C1 (stereo not drawn) [Compound 16, 11-(1H-benzo[d]imidazol-1-yl)-1,2,3,4,6,7,14,14a-octahydrobenzo[4,5]imidazo[1,2-d]pyrido[2,1-g][1,4]diazepine]",< 10 nM
9,"c1cc2cc(-c3ccc4c(c3)nc3n4C4CCC3CN(C3CCC3)C4)ccc2[nH]1 (stereo not drawn) [Compound 28, 3-cyclobutyl-8-(1H-indol-5-yl)-2,3,4,5-tetrahydro-1H-1,5-ethanobenzo[4,5]imidazo[1,2-d][1,4]diazepine]",> 1000 nM
10,"CN1CCN(c2ccc3c(c2)nc2n3CCN3CCCCC3C2)CC1 (stereo not drawn) [Compound 11, 11-(4-methylpiperazin-1-yl)-1,2,3,4,6,7,14,14a-octahydrobenzo[4,5]imidazo[1,2-d]pyrido[2,1-g][1,4]diazepine]",< 10 nM
11,"Clc1ccc2c(c1)nc1n2CC2CCC(C1)N2C1CCC1 (stereo not drawn) [Compound 18, 3-chloro-13-cyclobutyl-6,7,8,9,10,11-hexahydro-7,10-epiminobenzo[4,5]imidazo[1,2-a]azocine]",< 1000 nM
12,"CC(=O)Nc1ccc(-c2ccc3c(c2)nc2n3C3CCC2CN(C2CCC2)C3)cc1 (stereo not drawn) [Compound 27, N-(4-(3-cyclobutyl-2,3,4,5-tetrahydro-1H-1,5-ethanobenzo[4,5]imidazo[1,2-d][1,4]diazepin-8-yl)phenyl)acetamide]",< 100 nM
13,"c1coc(-c2ccc3c(c2)nc2n3CC3CCCN3CC2)c1 (stereo not drawn) [Compound 14, 9-(furan-2-yl)-2,3,5,6,13,13a-hexahydro-1H-benzo[4,5]imidazo[1,2-d]pyrrolo[1,2-a][1,4]diazepine]",> 1000 nM
14,"Clc1ccc2c(c1)nc1n2C2CC(C1)N(C1CCC1)C2 (stereo not drawn) [Compound 32, 8-chloro-3-cyclobutyl-2,3,4,5-tetrahydro-1H-1,4-methanobenzo[4,5]imidazo[1,2-d][1,4]diazepine]",> 1000 nM
15,"N#Cc1ccc(-c2ccc3c(c2)nc2n3C3CC(C2)N(C2CCC2)C3)cc1 (stereo not drawn) [Compound 33, 4-(3-cyclobutyl-2,3,4,5-tetrahydro-1H-1,4-methanobenzo[4,5]imidazo[1,2-d][1,4]diazepin-8-yl)benzonitrile]",< 1000 nM
16,"c1cn2cc(-c3ccc4c(c3)nc3n4CCN4CCCCC4C3)ccc2n1 (stereo not drawn) [Compound 15, 11-(imidazo[1,2-a]pyridin-6-yl)-1,2,3,4,6,7,14,14a-octahydrobenzo[4,5]imidazo[1,2-d]pyrido[2,1-g][1,4]diazepine]",< 10 nM
17,"c1cc2cc(-c3ccc4c(c3)nc3n4CC4CCC(C3)N4C3CCC3)ccc2[nH]1 (stereo not drawn) [Compound 22, 13-cyclobutyl-3-(1H-indol-5-yl)-6,7,8,9,10,11-hexahydro-7,10-epiminobenzo[4,5]imidazo[1,2-a]azocine]",< 100 nM
18,"c1coc(-c2ccc3c(c2)nc2n3C3CCC2CN(C2CCC2)C3)c1 (stereo not drawn) [Compound 29, 3-cyclobutyl-8-(furan-2-yl)-2,3,4,5-tetrahydro-1H-1,5-ethanobenzo[4,5]imidazo[1,2-d][1,4]diazepine]",< 1000 nM
19,"c1cn2cc(-c3ccc4c(c3)nc3n4C4CC(C3)N(C3CCC3)C4)ccc2n1 (stereo not drawn) [Compound 34, 3-cyclobutyl-8-(imidazo[1,2-a]pyridin-6-yl)-2,3,4,5-tetrahydro-1H-1,4-methanobenzo[4,5]imidazo[1,2-d][1,4]diazepine]",< 1000 nM
